# Results: article PMC7297445, “Pharmacokinetic/Pharmacodynamic Determination and Preclinical Pharmacokinetics of the β-Lactamase Inhibitor ETX1317 and Its Orally Available Prodrug ETX0282” (ACS Infectious Diseases, 2020)
# Tests used:
# [1] = tested on: E. coli ARC2687; assay: Hollow-fiber infection model (HFIM), dose fractionation; type: cell-based; conditions: with CPD
# Procedure: (§1) The PK/PD driver of ETX1317 was assessed in the presence of CPD in both hollow-fiber[28]−[31] and chemostat[32]in vitro infection model systems. In all cases, CPD was administered q12h via a 2 h infusion and eliminated with a 2 h half-life, with the concentration of drug exceeding the MIC (the MIC of CPD in the presence of ETX1317 at a 1:2 ratio) for 50% of the dosing interval for each strain. Representative Emax plots are shown graphically for Escherichia coli ARC2687 in the hollow-fiber model and Klebsiella pneumoniae ARC4420 in the chemostat system (Figure 2). […] This could partially be attributed to the distribution of the concentration ranges utilized for the hollow-fiber infection model (HFIM) where most of the data scatter occurred in the efficacious dose range for lower MIC strains. It is important to note that initial evaluation of K. pneumoniae ARC4420 and ARC5118 was completed in the HFIM but rapid degradation of CPD, presumably through accumulation of β-lactamases in the extra-capillary space of the cartridge precluded a reliable assessment of the PK/PD driver with these strains in this model.[32] […] In both the HFIM and chemostat models the optimum critical threshold of ETX1317 was established through iterative Emax fitting of a range of ETX1317 concentrations from 0.5× to 2× the CPD:ETX1317 MIC value. In the HFIM, %Time > ETX1317 CT of 2× MIC provided the highest correlation to observed activity which appeared to be independent to the apparent intrinsic activity of ETX1317 (as reflected by ETX1317 MICBLI of K. pneumoniae ARC4486 vs ARC4488). […] In both models CPD infused alone mimicked vehicle control as expected with similar growth of +2 to 4 log10 CFU/mL.
# (§2) Enterobacteriaceae isolates E. coli ARC2687 and K. pneumoniae isolates ARC4486, ARC4488, ARC5118, and ARC4420 were prepared for infection from an overnight plate culture. On the day of the experiment, a few colonies of bacteria were inoculated in Mueller Hinton Broth II (MHBII, Sigma-Aldrich, St. Louis, MO) and incubated at 35 °C until reaching log-phase growth, about 1 h. In hollow-fiber studies cell population density is confirmed by turbidimetric assay (OD600) and final dilution is adjusted to deliver approximately 15 mL of bacteria (1 × 10^6 CFU/mL) to the extra-capillary space of the hollow-fiber cartridge (Fibercell Systems, Inc., Frederick, MD). After 1 h, targeted drug concentrations were introduced using a 2 h infusion via a syringe pump (Harvard Apparatus, Holliston, MA). For chemostat experiments approximately 1 mL of bacteria (1 × 10^8 CFU/mL) were introduced to the chemostat reservoir bottle with 100 mL MHBII to dilute bacterial culture and reach a target CFU density of 1 × 10^6 CFU/mL. After 5 min, each chemostat bottle was exposed to targeted drug with a 2 h infusion administered via syringe pump.
# (§3) ETX1317 and CPD were dissolved in MHBII (accounting for potency) and delivered as a 2 h infusion via syringe pump (Harvard Apparatus, Holliston, MA). Solubility and stability were confirmed at room temperature for the experiment. Dose formulation potency was verified by LC/MS/MS.
# (§4) Dose range and dose fractionation were performed in hollow-fiber infection model (HFIM) and chemostat (one-compartment) in vitro infection model. Bacteria treated with media only (growth control) and dose arms spanning a 64-fold exposure range of drug delivered within regimens of q6h, q12h, and q24h were used. E. coli ARC2687 and K. pneumoniae ARC4486 and ARC4488 were completed in the HFIM. K. pneumoniae ARC5118 and ARC4420 were studied in the chemostat system. CPD concentrations were targeted to achieve exposure of ∼50%Time > MIC determined in the presence of ETX1317. Both CPD and ETX1317 were administered via a 2 h infusion from syringe pumps (Harvard Apparatus) to mimic the approximate Cmax following oral absorption observed clinically for CDP. […]
# [2] = tested on: K. pneumoniae ARC4486; assay: as above; type: cell-based; conditions: with CPD
# Procedure: as §1, §2, §3, §4
# [3] = tested on: K. pneumoniae ARC4488; assay: as above; type: cell-based; conditions: with CPD
# Procedure: as §1, §2, §3, §4
# [4] = Plasma protein binding; type: in vitro ADME, rat
# Procedure: (§5) Plasma protein binding was determined by rapid equilibrium dialysis. Plasma was freshly prepared from blood samples drawn in to EDTA (anticoagulant) containing tubes. Plasma was prepared using a table-top centrifuge and spun per instruction of the tube manufacturer and specifications (Beckton, Dickinson and Company, Franklin Lakes, NJ) and placed on ice prior to use.
# (§6) Pooled plasma samples were centrifuged at 2000 rpm (approximately 1400g) for 15 min at 4 °C to remove debris. Approximately 90% of the clear supernatant fraction was transferred to a separate tube. Samples (500 μL) were then spiked with a 100× stock solution 100 μM, 0.5 mM, and 10 mM ETX1317 in DMSO respectively for 1, 5, and 100 μM final concentrations, transferred to the top of the filter chambers, and allowed to equilibrate for 15 min prior to centrifugation. The filtrate tubes were centrifuged at 14000g for 15 min at 4 °C. Next, 50 μL of the filtrate was precipitated with 300 μL of acetonitrile containing 250 ng/mL of carbutamide as the internal standard and the samples were analyzed by LC/MS/MS analysis.
# [5] = Plasma protein binding; type: in vitro ADME, mouse
# Procedure: as §5, §6
# [6] = Plasma protein binding; type: in vitro ADME, human
# Procedure: as §5, §6
# [7] = Plasma protein binding; type: in vitro ADME, monkey
# Procedure: as §5, §6
# [8] = Plasma protein binding across species; type: in vitro ADME, monkeys, humans, mice, rats, and dogs; conditions: monkey, human, mouse, rat, dog, range across species, 1 to 100 μM
# Procedure: Intravenous and oral pharmacokinetics of ETX1317 and ETX0282 in preclinical species are summarized in Table 7 and Table S1, respectively. Time vs concentration profiles are depicted graphically in Figure S1.
# as §5, §6
smiles,measurement,setting,value
CC1=C[C@@H](C(N)=O)N2C[C@@H]1N(O[C@H](F)C(=O)O)C2=O [ETX1317],%Time > CT of 1 μg/mL for 1–log10 kill,[1],14%
same,%Time > CT of 1 μg/mL for stasis,[1],7%
same,%Time > CT of 1 μg/mL for 1–log10 kill,[2],49%
same,%Time > CT of 1 μg/mL for stasis,[2],37%
same,%Time > CT of 1 μg/mL for 1–log10 kill,[3],47%
same,%Time > CT of 1 μg/mL for stasis,[3],43%
same,Proportion unbound,[4]; 1 µM,94%
same,Proportion unbound,[4]; 5 µM,97%
same,Proportion unbound,[4]; 100 µM,83%
same,Proportion unbound,[5]; 1 µM,88%
same,Proportion unbound,[5]; 5 µM,100%
same,Proportion unbound,[5]; 100 µM,90%
same,fraction unbound at 15 min,"[5]; mouse plasma, read-out: percent unbound",0.93
same,Proportion unbound,[6]; 1 µM,82%
same,Proportion unbound,[6]; 5 µM,99%
same,Proportion unbound,[6]; 100 µM,80%
same,Proportion unbound,[7]; 1 µM,77%
same,Proportion unbound,[7]; 5 µM,97%
same,fraction unbound at 15 min,[8],0.77 to 1
